Experimental data from paper PMC4672351, “Drug-Drug Interaction Potentials of Tyrosine Kinase Inhibitors via Inhibition of UDP-Glucuronosyltransferases” (Scientific Reports, 2015).

Legend:
[1] = target: T1, UGT1A9 (Homo sapiens, UniProt O60656)
T1 sequence (O60656 26-530): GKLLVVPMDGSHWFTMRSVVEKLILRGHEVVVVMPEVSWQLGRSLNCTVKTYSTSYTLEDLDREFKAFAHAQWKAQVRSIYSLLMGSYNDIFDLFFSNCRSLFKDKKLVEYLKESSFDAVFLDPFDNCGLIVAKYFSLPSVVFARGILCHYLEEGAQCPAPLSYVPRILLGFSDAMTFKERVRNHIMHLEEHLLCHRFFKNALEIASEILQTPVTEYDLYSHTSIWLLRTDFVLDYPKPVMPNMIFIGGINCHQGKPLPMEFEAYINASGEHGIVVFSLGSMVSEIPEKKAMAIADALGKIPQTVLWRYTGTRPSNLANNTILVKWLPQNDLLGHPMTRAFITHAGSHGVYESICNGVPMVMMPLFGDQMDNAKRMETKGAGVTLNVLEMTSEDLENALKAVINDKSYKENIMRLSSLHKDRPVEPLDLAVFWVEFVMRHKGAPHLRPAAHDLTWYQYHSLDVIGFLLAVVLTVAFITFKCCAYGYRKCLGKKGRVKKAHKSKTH

[2] = ref [17][40][45] axitinib, [38][39][46] imatinib, [41][42] lapatinib, [43][44] vandetanib, cited from earlier work; for Cmax: clinical oral dose: axitinib 5 mg/12 h, imatinib 400 mg/24 h, lapatinib 1250 mg/24 h, vandetanib 300 mg/24 h; for Absorption Rate Constant (ka) / Fraction absorbed (Fa) / Oral CL / t1/2: clinical
[3] = target: T1, UGT1A9; experiment: biochemical
[4] = target: T2, UGT1A4 (Homo sapiens, UniProt P22310); experiment: Inhibition of TFP glucuronidation by recombinant UGT1A4; details: for activity at 30 min, 100 µM: human
T2 sequence (P22310 29-534): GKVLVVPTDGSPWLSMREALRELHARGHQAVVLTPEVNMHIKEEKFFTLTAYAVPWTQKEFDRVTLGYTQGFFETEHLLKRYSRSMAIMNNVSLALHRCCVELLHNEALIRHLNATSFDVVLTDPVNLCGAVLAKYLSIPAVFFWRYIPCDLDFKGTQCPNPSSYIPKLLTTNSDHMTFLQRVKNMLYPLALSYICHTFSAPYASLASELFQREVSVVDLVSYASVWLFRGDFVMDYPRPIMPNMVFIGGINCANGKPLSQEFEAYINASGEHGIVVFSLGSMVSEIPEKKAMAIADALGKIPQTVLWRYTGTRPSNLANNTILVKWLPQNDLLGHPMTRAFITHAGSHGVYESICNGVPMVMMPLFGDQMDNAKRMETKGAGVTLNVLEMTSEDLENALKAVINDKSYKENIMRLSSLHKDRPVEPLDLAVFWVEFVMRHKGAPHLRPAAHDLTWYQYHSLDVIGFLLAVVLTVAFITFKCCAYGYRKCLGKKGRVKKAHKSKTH

[5] = target: T3, UGT2B15 (Homo sapiens, UniProt P54855); experiment: Inhibition of 4-MU glucuronidation by recombinant UGT2B15; details: recombinant UGT2B15, pH 7.4, probe 4-MU
T3 sequence (P54855 24-530): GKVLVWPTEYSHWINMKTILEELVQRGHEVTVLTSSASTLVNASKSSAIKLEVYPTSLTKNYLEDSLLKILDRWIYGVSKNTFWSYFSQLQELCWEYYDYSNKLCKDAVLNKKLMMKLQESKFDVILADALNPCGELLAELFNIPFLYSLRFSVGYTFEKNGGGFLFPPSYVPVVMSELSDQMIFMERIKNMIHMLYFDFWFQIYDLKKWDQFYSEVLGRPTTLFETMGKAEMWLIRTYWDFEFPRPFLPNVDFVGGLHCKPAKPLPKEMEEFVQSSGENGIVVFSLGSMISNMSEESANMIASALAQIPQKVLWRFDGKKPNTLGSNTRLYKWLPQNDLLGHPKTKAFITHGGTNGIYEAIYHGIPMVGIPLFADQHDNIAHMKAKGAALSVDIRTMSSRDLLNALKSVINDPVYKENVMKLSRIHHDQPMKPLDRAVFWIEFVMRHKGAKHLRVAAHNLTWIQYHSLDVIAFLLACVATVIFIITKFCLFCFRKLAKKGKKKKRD

[6] = target: T4, UGT1A7 (Homo sapiens, UniProt Q9HAW7); experiment: Prediction of DDI risk (AUCi/AUC) from in vitro data, UGT1A7 substrates; design: purchased BD Gentest (Woburn, MA); host or cells: baculovirus-infected insect cells
T4 sequence (Q9HAW7 26-530): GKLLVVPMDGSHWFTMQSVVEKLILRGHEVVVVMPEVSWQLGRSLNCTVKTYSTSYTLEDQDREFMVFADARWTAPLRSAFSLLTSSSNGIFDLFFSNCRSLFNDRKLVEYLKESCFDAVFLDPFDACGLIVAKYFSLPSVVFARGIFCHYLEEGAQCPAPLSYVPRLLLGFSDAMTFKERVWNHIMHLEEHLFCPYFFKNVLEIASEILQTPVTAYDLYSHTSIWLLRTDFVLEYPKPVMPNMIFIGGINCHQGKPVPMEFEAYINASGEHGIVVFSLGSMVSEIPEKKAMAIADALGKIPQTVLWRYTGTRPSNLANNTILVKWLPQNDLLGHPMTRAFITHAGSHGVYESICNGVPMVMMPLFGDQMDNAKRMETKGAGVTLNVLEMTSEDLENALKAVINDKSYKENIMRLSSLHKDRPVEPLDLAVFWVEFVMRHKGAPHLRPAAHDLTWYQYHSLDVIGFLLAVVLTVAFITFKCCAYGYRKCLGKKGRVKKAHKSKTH

[7] = target: T1, UGT1A9; details: 4-MU substrate
[8] = recombinant UGT1A4, pH 7.4, probe TFP (trifluoperazine)

For CNC(=O)c1ccccc1Sc1ccc2c(/C=C/c3ccccn3)n[nH]c2c1 [Axitinib, axitinib], the “Predicted AUCi/AUC ratio of UGT1A9 substrates” value ([1]; fm is 1) is listed as ~1, the Cmax [2] is listed as 0.16 µM and the “Absorption Rate Constant (ka)” value [2] is listed as 0.523 h⁻¹. The “Fraction absorbed (Fa)” value [2] was 0.88, the “Oral CL” value [2] was 45 L/h and the t1/2 [2] was 3.2 h. The IC50 [3] was 3.6 ± 0.7 µM, the IC50 [4] was 14.2 ± 3.2 µM and the activity at 30 min, 100 µM ([4]; pH 7.4) was 14.9 ± 1.8%. The activity at 120 min, 100 µM [5] was 49.3 ± 5.2% and the “Predicted AUCi/AUC ratio of UGT1A7 substrates” value ([6]; fm is 1) was ~1.
For CS(=O)(=O)CCNCc1ccc(-c2ccc3ncnc(Nc4ccc(OCc5cccc(F)c5)c(Cl)c4)c3c2)o1 [Lapatinib, lapatinib], the Cmax [2] is given as 4.2 µM, the “Absorption Rate Constant (ka)” value [2] is given as 0.7 h⁻¹ and the “Fraction absorbed (Fa)” value [2] is given as 0.73. For the same compound, the “Oral CL” value [2] was 114 L/h, the t1/2 [2] was 24 h and the IC50 [4] was 3.8 ± 0.7 µM. The Ki [4] was 36.4 ± 5 µM, the “inhibition type, UGT1A4” value ([4]; TFP substrate) was “mixed” and the activity at 30 min, 100 µM [4, 8] was 40.7 ± 1.9%. The activity at 120 min, 100 µM [5] was 110 ± 3.1% and the “Predicted increase in the AUC of substrate by UGT1A7 inhibition” value ([6]; fm not given, Imax,u used) was ~1%.
In the case of COc1cc2c(Nc3ccc(Br)cc3F)ncnc2cc1OCC1CCN(C)CC1 [Vandetanib, vandetanib], the “inhibition type, UGT1A9” value [7] is listed as “mixed”, the “Predicted increase in the AUC of substrate by UGT1A9 inhibition” value ([1]; fm not given) is listed as “about 2%” and the Cmax [2] is listed as 3.32 µM. For the same compound, the “Absorption Rate Constant (ka)” value [2] was 0.3 h⁻¹, the “Fraction absorbed (Fa)” value [2] was 0.935 and the “Oral CL” value [2] was 13.2 L/h. For the same compound, the t1/2 [2] was 456 h, the IC50 [3] was 5 ± 0.4 µM and the Ki [3] was 9 ± 1.2 µM. For the same compound, the activity at 30 min, 100 µM [4, 8] was 62.8% and the activity at 120 min, 100 µM [5] was 79.2 ± 1.4%.
